The results in this text go back to paper PMC3445516 (PLoS ONE, 2012).

Where two headings read alike, the source gives them in different places. A value given as a limit tells only on which side of the number the result lay.

Holding throughout (experiment): Ambit kinase profiling, competition binding
In experiment [1] the target is T1, FRK (Homo sapiens, UniProt P42685).
T1 construct: purchased Ambit Biosciences (KINOMEscan)
The method, then:
(§1) Also included in the kinase profile are four isoforms of PKC (δ, ε, η, θ) and eight isoforms of CAMKs (CAMKIα, δ, γ; CAMKIIα, β, δ, γ; CAMK4).
(§2) The global kinase profiling experiment was performed by Ambit Biosciences.

Experiment [2] addresses T2, ACVRL1 (Homo sapiens, UniProt P37023).
T2 construct: purchased Ambit Biosciences (KINOMEscan)
The procedure:
as §1, §2

Experiment [3] concerns the target T3, EPHA3 (Homo sapiens, UniProt P29320).
T3 construct: purchased Ambit Biosciences (KINOMEscan)
T3 sequence (P29320 21-983): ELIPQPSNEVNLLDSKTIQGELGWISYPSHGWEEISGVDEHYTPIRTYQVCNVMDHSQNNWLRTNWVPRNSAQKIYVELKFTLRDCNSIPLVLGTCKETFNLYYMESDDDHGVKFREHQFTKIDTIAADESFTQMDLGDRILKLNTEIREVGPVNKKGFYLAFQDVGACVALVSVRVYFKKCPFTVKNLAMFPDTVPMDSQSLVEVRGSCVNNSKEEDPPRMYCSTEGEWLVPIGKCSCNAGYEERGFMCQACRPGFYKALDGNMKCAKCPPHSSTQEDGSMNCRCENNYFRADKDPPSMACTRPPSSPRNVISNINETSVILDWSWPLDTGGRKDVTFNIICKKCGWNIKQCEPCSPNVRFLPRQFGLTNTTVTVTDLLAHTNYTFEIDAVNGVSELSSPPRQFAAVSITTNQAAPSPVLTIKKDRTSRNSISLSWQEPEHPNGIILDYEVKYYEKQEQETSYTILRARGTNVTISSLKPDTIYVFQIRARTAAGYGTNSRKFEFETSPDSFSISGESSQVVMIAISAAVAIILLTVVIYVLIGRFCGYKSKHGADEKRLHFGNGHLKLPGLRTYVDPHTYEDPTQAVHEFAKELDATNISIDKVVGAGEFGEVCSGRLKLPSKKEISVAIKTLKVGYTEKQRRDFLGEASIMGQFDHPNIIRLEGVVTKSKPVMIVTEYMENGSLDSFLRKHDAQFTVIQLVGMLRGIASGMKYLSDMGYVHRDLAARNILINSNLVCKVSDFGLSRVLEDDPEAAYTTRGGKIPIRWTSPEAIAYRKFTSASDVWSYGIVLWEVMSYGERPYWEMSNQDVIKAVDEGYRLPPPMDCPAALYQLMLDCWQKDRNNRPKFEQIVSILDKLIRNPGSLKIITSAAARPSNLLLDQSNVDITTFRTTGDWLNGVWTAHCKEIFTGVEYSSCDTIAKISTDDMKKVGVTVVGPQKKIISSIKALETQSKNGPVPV
The procedure:
as §1, §2

Experiment [4] has as its target T4, ACVR1 (Homo sapiens, UniProt Q04771).
T4 construct: purchased Ambit Biosciences (KINOMEscan)
T4 sequence (Q04771 21-509): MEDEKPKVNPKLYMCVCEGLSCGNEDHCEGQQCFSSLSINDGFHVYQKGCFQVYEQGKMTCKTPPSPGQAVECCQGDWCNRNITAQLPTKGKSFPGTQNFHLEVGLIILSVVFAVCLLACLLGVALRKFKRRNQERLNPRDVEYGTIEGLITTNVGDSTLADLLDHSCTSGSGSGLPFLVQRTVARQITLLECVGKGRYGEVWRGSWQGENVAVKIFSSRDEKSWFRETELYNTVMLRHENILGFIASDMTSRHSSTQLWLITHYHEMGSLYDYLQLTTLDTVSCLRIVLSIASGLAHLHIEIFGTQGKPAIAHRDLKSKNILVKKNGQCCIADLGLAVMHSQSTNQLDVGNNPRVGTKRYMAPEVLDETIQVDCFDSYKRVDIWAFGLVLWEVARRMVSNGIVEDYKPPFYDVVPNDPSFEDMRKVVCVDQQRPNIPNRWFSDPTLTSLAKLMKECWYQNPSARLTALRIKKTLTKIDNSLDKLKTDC
The method, then:
as §1, §2

Experiment [5] concerns the target T5, ROS1 (Homo sapiens, UniProt P08922).
T5 construct: purchased Ambit Biosciences (KINOMEscan)
The method, then: as §1, §2

For experiment [6], the target named is T6, CDK2 (Homo sapiens, UniProt P24941).
T6 construct: purchased Ambit Biosciences (KINOMEscan)
As to conditions: for % Competition: 10 µM. The method, then: as §1, §2

Experiment [7] has as its target T7, DDR2 (Homo sapiens, UniProt Q16832).
T7 construct: purchased Ambit Biosciences (KINOMEscan)
T7 sequence (Q16832 22-855): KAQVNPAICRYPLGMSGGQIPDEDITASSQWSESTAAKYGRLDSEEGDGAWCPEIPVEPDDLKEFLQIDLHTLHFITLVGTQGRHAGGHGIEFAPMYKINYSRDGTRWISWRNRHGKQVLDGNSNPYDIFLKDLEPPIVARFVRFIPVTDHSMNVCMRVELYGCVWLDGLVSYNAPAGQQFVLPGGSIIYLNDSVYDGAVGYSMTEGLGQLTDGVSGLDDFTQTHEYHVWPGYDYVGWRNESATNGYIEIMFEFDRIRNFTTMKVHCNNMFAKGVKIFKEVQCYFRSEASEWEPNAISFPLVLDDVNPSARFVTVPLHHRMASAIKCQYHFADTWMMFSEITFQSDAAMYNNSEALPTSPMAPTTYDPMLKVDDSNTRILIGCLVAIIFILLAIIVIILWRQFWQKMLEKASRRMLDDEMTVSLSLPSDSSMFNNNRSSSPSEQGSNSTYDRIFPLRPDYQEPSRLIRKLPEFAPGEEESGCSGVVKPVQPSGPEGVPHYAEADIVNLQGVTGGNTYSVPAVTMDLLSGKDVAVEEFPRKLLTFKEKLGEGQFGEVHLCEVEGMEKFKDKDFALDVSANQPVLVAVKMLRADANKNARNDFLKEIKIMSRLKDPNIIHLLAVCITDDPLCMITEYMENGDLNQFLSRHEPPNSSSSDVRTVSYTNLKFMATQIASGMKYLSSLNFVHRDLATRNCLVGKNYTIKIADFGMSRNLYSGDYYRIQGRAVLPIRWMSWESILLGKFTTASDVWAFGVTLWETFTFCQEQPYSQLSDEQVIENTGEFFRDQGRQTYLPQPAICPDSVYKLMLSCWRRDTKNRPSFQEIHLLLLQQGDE
The method, then: as §1, §2

The target of experiment [8] is T8, SRC (Homo sapiens, UniProt P12931).
T8 construct: purchased Ambit Biosciences (KINOMEscan)
T8 sequence (P12931 whole entry): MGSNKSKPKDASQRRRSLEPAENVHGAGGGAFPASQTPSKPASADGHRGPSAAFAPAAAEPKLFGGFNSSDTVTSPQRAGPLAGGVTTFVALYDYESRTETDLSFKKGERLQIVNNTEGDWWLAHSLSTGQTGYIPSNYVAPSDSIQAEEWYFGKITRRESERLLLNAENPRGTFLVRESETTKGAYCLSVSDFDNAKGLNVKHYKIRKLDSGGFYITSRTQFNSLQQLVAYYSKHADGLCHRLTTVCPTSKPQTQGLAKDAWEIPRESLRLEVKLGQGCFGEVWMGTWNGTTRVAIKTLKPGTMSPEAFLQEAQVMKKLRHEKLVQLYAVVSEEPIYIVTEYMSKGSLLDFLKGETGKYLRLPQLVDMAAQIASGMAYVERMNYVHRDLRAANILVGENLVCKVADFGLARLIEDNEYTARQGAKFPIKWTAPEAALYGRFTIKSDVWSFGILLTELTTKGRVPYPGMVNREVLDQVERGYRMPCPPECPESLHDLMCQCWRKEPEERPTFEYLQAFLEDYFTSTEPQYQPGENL
The method, then: as §1, §2

In experiment [9] the target is T9, DYRK1B (Homo sapiens, UniProt Q9Y463).
T9 construct: purchased Ambit Biosciences (KINOMEscan)
T9 sequence (Q9Y463 whole entry): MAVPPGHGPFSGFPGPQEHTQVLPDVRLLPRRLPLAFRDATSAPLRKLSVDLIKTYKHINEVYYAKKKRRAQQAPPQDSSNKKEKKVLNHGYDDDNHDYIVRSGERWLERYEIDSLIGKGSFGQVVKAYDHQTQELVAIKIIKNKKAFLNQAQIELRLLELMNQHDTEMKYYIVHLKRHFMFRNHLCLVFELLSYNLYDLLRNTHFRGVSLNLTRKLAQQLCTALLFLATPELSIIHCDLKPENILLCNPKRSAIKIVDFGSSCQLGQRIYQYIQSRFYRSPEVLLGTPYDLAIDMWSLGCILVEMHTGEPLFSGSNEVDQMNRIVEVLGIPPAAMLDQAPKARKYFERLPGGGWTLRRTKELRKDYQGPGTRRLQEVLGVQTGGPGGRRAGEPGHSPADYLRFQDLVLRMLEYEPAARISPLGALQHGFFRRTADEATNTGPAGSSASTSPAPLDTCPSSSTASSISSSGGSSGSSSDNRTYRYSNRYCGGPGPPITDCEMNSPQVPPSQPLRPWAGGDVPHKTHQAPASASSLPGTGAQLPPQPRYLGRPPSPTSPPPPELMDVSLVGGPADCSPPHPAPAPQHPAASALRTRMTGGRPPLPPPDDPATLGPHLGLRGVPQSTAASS
The procedure:
as §1, §2

Experiment [10] concerns the target T10, PAK4 (Homo sapiens, UniProt O96013).
T10 construct: purchased Ambit Biosciences (KINOMEscan)
The method, then:
as §1, §2

T1 sequence (P42685 whole entry): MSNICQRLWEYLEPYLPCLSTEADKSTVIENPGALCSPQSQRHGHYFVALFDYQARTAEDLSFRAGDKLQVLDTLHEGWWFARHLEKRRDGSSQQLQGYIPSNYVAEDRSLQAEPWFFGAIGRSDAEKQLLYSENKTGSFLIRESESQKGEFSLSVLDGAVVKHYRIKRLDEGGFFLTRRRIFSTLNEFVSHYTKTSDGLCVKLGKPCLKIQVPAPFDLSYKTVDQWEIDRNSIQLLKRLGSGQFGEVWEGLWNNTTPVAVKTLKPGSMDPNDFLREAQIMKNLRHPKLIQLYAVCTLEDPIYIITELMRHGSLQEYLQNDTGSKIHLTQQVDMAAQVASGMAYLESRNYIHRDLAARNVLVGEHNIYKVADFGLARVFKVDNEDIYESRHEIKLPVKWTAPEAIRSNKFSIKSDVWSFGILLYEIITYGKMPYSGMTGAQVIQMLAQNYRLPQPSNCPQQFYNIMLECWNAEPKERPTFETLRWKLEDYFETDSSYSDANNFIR
T10 sequence (O96013 whole entry): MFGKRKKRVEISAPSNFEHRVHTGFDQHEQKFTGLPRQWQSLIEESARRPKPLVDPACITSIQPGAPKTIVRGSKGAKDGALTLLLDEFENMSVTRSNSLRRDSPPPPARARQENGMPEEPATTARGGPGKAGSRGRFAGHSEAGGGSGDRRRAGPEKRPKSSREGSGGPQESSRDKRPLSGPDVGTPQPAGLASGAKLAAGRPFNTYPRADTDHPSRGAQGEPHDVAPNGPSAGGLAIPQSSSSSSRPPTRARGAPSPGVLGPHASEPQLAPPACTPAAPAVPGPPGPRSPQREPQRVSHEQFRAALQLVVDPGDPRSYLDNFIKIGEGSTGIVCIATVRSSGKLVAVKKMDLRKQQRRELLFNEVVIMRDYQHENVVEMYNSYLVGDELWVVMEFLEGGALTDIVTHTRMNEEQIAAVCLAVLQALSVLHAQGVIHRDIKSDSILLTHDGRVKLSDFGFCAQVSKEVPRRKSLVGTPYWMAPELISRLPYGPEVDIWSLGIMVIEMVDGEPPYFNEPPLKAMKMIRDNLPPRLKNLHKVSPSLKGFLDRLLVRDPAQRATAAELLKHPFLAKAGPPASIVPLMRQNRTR
T2 sequence (P37023 22-503): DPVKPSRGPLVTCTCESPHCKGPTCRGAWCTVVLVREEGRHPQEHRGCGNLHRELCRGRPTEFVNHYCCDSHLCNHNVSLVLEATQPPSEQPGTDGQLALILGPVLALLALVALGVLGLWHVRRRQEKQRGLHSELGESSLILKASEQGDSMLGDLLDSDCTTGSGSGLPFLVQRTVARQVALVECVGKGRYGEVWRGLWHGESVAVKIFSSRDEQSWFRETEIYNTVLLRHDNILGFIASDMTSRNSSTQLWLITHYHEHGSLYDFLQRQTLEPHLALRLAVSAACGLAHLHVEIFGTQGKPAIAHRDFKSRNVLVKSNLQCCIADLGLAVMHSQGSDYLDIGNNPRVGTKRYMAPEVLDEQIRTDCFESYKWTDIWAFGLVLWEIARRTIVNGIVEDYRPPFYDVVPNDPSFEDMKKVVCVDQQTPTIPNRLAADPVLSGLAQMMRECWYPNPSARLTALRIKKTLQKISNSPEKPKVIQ
T5 sequence (P08922 28-2347): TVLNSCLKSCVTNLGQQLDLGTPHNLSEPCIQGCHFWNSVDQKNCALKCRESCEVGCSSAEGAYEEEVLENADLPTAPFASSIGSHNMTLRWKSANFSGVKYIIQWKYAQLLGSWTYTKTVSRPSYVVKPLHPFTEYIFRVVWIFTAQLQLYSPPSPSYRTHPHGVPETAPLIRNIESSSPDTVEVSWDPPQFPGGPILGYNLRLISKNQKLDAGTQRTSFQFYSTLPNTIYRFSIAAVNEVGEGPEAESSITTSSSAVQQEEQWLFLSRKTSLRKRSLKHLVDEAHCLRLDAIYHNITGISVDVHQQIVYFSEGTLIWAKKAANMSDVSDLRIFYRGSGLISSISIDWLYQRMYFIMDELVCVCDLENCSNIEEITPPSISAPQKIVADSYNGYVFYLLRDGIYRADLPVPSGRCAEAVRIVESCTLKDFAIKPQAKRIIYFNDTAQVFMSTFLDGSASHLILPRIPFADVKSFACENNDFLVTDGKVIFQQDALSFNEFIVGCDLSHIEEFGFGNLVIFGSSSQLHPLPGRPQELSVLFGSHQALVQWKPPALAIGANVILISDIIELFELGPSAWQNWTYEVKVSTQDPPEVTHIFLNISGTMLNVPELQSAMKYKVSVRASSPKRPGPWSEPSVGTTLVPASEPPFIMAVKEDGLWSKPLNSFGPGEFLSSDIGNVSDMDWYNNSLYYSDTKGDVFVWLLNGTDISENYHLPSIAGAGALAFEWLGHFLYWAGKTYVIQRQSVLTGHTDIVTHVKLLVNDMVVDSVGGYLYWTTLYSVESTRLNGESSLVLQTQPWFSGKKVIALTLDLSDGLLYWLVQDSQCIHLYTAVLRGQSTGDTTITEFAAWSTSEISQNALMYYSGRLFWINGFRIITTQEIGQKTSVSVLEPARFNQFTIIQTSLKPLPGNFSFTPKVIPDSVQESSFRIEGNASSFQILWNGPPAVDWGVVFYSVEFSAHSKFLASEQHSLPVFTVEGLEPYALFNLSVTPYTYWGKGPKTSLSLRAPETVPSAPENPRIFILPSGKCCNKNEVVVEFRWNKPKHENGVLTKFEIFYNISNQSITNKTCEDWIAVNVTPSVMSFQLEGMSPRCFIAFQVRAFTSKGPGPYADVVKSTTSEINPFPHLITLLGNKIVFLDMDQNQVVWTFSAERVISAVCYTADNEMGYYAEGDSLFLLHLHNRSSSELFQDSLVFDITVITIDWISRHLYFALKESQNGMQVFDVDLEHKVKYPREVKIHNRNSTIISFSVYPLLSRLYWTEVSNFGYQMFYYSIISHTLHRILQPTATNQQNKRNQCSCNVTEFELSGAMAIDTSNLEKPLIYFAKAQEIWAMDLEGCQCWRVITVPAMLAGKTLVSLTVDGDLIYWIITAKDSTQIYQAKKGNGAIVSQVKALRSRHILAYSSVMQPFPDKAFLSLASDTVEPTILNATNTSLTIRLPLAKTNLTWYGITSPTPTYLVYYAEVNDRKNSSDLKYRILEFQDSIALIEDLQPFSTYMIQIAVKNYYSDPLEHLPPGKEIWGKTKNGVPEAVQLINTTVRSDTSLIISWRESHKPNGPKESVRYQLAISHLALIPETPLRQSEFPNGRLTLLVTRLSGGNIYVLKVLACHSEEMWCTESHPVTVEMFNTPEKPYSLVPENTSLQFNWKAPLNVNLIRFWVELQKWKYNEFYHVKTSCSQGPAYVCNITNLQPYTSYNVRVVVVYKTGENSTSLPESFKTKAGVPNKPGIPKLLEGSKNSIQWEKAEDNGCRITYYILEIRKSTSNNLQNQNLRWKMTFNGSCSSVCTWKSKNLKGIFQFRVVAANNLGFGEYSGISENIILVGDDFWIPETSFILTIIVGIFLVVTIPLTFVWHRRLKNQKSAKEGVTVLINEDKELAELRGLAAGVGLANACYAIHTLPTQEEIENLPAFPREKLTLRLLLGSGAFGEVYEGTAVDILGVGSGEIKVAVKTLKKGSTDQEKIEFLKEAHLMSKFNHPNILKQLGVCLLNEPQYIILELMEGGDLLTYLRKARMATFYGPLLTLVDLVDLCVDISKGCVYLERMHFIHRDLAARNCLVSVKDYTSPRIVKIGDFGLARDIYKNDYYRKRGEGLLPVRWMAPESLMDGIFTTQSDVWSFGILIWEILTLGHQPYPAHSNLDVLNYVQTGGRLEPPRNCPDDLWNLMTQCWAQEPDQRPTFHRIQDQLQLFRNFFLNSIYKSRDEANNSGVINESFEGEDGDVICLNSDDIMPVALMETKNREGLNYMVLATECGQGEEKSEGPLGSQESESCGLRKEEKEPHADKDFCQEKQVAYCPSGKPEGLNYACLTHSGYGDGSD

Consider `Fc1ccc(-c2c(-c3ccncc3)[nH]c3nccnc23)cc1` [Compound 122], for which the inhibition at 10 µM is 85% in [1] (FRK, 10 µM, read-out: % Competition); 83% in experiment [2] (ACVRL1, 10 µM, read-out: % Competition); 85% in [3] (EPHA3, 10 µM, read-out: % Competition); 92% in experiment [4] (ACVR1, 10 µM, read-out: % Competition); 80% in experiment [5] (ROS1, 10 µM, read-out: % Competition); 100% in [7] (DDR2, 10 µM, read-out: % Competition). Besides, the inhibition at 10 µM worked out at 87% in experiment [8] (SRC, 10 µM, read-out: % Competition); 79% in experiment [9] (DYRK1B, 10 µM, read-out: % Competition); 82% in experiment [10] (PAK4, 10 µM, read-out: % Competition). In [6], the “% Competition” value was determined as 93%.
Turning to `CC(O)CNc1cc(-c2[nH]c3cccnc3c2-c2ccc(F)cc2)ccn1` (stereo not drawn) [Compound 140], the inhibition at 10 µM in [1] (read-out: % Competition) is under 50%; in experiment [2] (read-out: % Competition), under 50%; in [3] (read-out: % Competition) it was under 50%; in experiment [4] (read-out: % Competition), under 50%; in experiment [5] (read-out: % Competition), under 50%; in experiment [7] (read-out: % Competition), 67%. Further, the inhibition at 10 µM in [8] (read-out: % Competition), in experiment [9] (read-out: % Competition) and in experiment [10] (read-out: % Competition) was under 50% each time. Also, the “% Competition” value in experiment [6] is recorded as under 50%.
Take `Fc1ccc(-c2c(-c3ccncc3)[nH]c3nccnc23)cc1` [RO1155697-000-005]: the inhibition at 10 µM in [1] (FRK, compound concentration 10 uM, read-out: Percent Competition) was 85%; in experiment [2] (ACVRL1, compound concentration 10 uM, read-out: Percent Competition), 83%; in experiment [3] (EPHA3, compound concentration 10 uM, read-out: Percent Competition), 85%; in experiment [4] (ACVR1, compound concentration 10 uM, read-out: Percent Competition) it was 92%; in experiment [5] (ROS1, compound concentration 10 uM, read-out: Percent Competition) it was 80%; in experiment [7] (DDR2, compound concentration 10 uM, read-out: Percent Competition) it was 100%. Further, the inhibition at 10 µM is 87% in [8] (SRC, compound concentration 10 uM, read-out: Percent Competition); 79% in [9] (DYRK1B, compound concentration 10 uM, read-out: Percent Competition); 82% in experiment [10] (PAK4, compound concentration 10 uM, read-out: Percent Competition). Further, the “Percent Competition” value in experiment [6] (compound concentration 10 uM) came to 93%.
